Assay results taken from patent US7858635B2 (priority 2005, dated 2010).
Like-named read-outs stand apart in the source and are kept apart here.

Key:
M1 muscarinic receptor = target: T1, M1 muscarinic receptor (Homo sapiens, UniProt P11229); assay: Functional mobilization of intracellular calcium (FLIPR, Fluo-3), M1-CHO cells; format: cell-based; settings: for Emax: read-out: M1 Efficacy
T1 construct: expressed in transfected cells; host or cells: CHO cells (M1-CHO, under zeocin and G418 selection)
T1 sequence (P11229 1-460): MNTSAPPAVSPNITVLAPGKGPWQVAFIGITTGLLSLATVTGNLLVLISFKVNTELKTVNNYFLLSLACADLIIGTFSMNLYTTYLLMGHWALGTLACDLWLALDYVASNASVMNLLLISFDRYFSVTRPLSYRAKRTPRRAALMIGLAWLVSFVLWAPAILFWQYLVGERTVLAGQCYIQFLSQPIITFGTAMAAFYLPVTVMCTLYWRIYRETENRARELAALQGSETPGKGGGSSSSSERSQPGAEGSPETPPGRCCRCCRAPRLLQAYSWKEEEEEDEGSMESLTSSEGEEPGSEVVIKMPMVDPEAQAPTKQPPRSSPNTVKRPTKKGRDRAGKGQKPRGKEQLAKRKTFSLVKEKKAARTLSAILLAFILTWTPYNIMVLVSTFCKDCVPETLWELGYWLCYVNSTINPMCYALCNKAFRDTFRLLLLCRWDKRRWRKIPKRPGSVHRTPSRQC
Description: (§1) CHO cells expressing muscarinic receptors (M1 to M5) are grown as monolayers in tissue culture flasks at 37° C. in a humidified atmosphere containing 5% CO2 and passaged every 3-5 days. The growth media is Dulbecco's modified eagles medium (DMEM, Gibco Cat#12430-054), containing 25 mM Hepes and supplemented with Fetal Bovine Serum (Hyclone, cat# SH30071.03), 0.1 mM of MEM non-essential amino acids (GIBCO, Cat# 11140-050), 1 mM MEM Sodium Pyruvate (GIBCO Cat# 11360-070) and 100 units/ml of Penicillin G and 100 μg/ml of Streptomycin (GIBCO Cat# 15140-122). The recombinant muscarinic receptor cell lines are grown under antibiotic pressure with media containing 25 μm/ml zeocin and 500 μg/ml G418 (M1-CHO), 4 μg/ml puromycin, 50 μg/ml zeocin and 2.5 μm/ml blasticidin (M2 and M4-CHO) or 50 μg/ml zeocin and 4 μg/ml puromycin (M3 and M5-CHO).
(§2) Cells are harvested at 80-90% confluence using Versene (GIBCO Cat# 15040-066), collected by centrifugation and seeded 18-24 hrs prior to running the calcium assay at a density of 5,000-10,000 cells/well in […], clear-bottomed 384-well plates (BD Biocoat, poly-D-lysine, Cat#356663). The day of the experiment, the cells are washed with a plate washer (Bioteck Instruments, ELX 405) using bath1 buffer (140-mM NaCl, 4.5-mM KCL, 2-mM CaCl2, 1-mM MgCl2, 10-mM Hepes-Na, 10-mM Glucose, pH 7.4, with NaOH) containing 1 mM Probenecid. Next, the calcium dye Fluo-3 (25 μl/well of Fluo-3 μM at 4 μM, Molecular Probes F-1241, in Bath 1 buffer containing 1 mM Probenecid) is added to the 25 μl of Bath 1 remaining in each well after the plate wash and the dye is loaded at 37° C. in the tissue culture incubator for 60-90 min. The fluorescent dye is removed using the plate washer with Bath 1 containing 1 mM Probenecid, leaving 25 μl/well of this solution after the wash. Alternatively, cells can be loaded with the calcium indicator from Molecular Devices (Calcium 3 Assay Reagents, Cat # R7181) adding 5 μl of a 5× solution dye in Bath 1 containing 1 mM Probenecid (10 ml per dye flask cat# R7182 to generate a solution 20×) to 20 μl of the same buffer. After loading for 60 min, the experiment can be run without having to remove the dye.
(§3) Compounds are prepared at a 2× fold concentration in a 96-well plate (round bottom, Costar Corning cat# 3656), by reconstituting the pre-spotted compounds in bath 1 containing 1 mM probenecid. The final concentration DMSO is 0.5%, and the amount of DMSO is normalized across the assay plate. To determine an agonist action of the compounds on muscarinic receptors, the reconstituted compounds are added (25 μl compound/well) to the cell assay plate (containing 25 μl/well) using the multi-channel robotic system of the FLIPR 3 Instrument (Molecular Devices, Sunnyvale, Calif.). To determine a functional inhibitory action of the compounds on muscarinic receptors, the reconstituted compounds are added (25 μl compound/well) to the assay plate and pre-incubated for 15 min prior to adding 25 μl of Carbachol at 3× the EC80 for each muscarinic subtype. Alternatively, the compounds can be co-applied simultaneously with the agonist. In both assay modes, the fluorescence is recorded for 60 sec (excitation wavelength is […] and emission wavelength 540 nm) using the FLIPR 3 instrument.
(§4) The potency, efficacy and selectivity of the muscarinic compounds were evaluated by screening the compound activity across the whole family (M1 to M5 cells). Compounds were also screened for activity on other proteins such as other GPCRs and ion channels to determine selectivity on M4 receptors.

M4 muscarinic receptor = target: T2, M4 muscarinic receptor (Homo sapiens, UniProt P08173); assay: Functional mobilization of intracellular calcium (FLIPR, Fluo-3), M4-CHO cells; format: cell-based; settings: for Emax: read-out: M4 Efficacy
T2 construct: expressed in transfected cells; host or cells: CHO cells (M4-CHO, under puromycin, zeocin and blasticidin selection)
T2 sequence (P08173 1-479): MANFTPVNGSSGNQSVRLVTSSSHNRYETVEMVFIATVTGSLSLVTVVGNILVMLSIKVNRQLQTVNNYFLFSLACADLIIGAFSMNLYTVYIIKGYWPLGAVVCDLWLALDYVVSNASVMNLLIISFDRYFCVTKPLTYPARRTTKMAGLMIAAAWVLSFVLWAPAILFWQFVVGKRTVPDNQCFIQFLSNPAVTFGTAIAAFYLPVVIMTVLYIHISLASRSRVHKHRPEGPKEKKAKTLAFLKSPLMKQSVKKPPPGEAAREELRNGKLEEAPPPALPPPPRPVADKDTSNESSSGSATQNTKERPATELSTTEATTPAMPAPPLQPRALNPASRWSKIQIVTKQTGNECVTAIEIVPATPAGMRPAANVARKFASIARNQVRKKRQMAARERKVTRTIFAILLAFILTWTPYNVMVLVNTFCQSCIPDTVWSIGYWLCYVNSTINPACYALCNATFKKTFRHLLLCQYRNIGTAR
Description: as §1, §2, §3, §4

[1] = compound nos. 455-509, 100% efficacy is the maximum response obtained with the Carbachol control
[2] = compound nos. 1-454, 100% efficacy is the maximum response obtained with the Carbachol control
[3] = compound nos. 1-454, M1-CHO cells, calcium mobilization
[4] = compound nos. 1-454, M4-CHO cells, calcium mobilization

Row | Structure (SMILES) | Emax (M1 muscarinic receptor; [2]) [%] | Emax (M4 muscarinic receptor; [2]) [%] | M1 Activity (M1 muscarinic receptor; [3]) | M4 Activity (M4 muscarinic receptor; [4]) | other results
1 | CC(=O)N1CCC2(CCN(C3CCN(c4nc(C)ns4)CC3)CC2)c2ccccc21 [compound 492] | – | – | – | – | Emax (M1 muscarinic receptor; [1]): > 100%; M1 Activity (M1 muscarinic receptor; compounds 455-509): +++ (activity was measured to be less than or equal to 2.0 μM); Emax (M4 muscarinic receptor; [1]): 25 to 100%; M4 Activity (M4 muscarinic receptor; compounds 455-509): ++ (activity was measured to be between 2.0 μM and 5.0 μM)
2 | CCOC(=O)N1CCC(N2CCC3(CC2)CN(C(C)=O)c2ccc(C4=CCCC4)cc23)CC1 [compound 426] | < 65 | < 55 | – | – | M1 Activity (M1 muscarinic receptor; compound nos. 1-454): + (activity was measured to be greater than or equal to 3.0 μM); M4 Activity (M4 muscarinic receptor; compound nos. 1-454): + (activity was measured to be greater than or equal to 4.0 μM)
3 | COC(=O)N1CC2(CCN(C3CC4CCC(C3)N4C(=O)OCC(C)C)CC2)c2cc(F)ccc21 (centres unmarked) [compound 287] | < 65 | < 55 | ++ (activity was measured to be between 0.7 μM and 3.0 μM) | + (activity was measured to be greater than or equal to 4.0 μM) | –
4 | Fc1ccc2c(c1)C1(CCN([C@@H]3C[C@@H]4CC[C@H]3C4)CC1)CO2 [compound 175] | 65 to 85 | 55 to 70 | +++ (activity was measured to be less than or equal to 0.7 μM) | ++ (activity was measured to be between 0.1 μM and 4.0 μM) | –
5 | CC(=O)N1CC2(CCN(C3CC4CCC(C3)N4C(=O)O[C@H]3CCOC3)CC2)c2cc(F)ccc21 (some centres unmarked) [compound 47] | 65 to 85 | 55 to 70 | +++ (activity was measured to be less than or equal to 0.7 μM) | ++ (activity was measured to be between 0.1 μM and 4.0 μM) | –
6 | CCCC1CCC(N2CCC3(CC2)CNc2ccc(Cl)cc23)CC1 (centres unmarked) [compound 341] | < 65 | < 55 | + (activity was measured to be greater than or equal to 3.0 μM) | + (activity was measured to be greater than or equal to 4.0 μM) | –
7 | Cc1ncc(N2CCC(N3CCC4(CC3)CN(C(=O)N(C)C)c3ccc(F)cc34)CC2)nc1C [compound 472] | – | – | – | – | Emax (M1 muscarinic receptor; [1]): > 100%; M1 Activity (M1 muscarinic receptor; compounds 455-509): +++ (activity was measured to be less than or equal to 2.0 μM); Emax (M4 muscarinic receptor; [1]): 25 to 100%; M4 Activity (M4 muscarinic receptor; compounds 455-509): ++ (activity was measured to be between 2.0 μM and 5.0 μM)
8 | COC(=O)N1CC2(CCN(C3CC4CCC(C3)N4C(=O)OC)CC2)c2cc(F)ccc21 (centres unmarked) [compound 235] | 65 to 85 | 55 to 70 | ++ (activity was measured to be between 0.7 μM and 3.0 μM) | + (activity was measured to be greater than or equal to 4.0 μM) | –
9 | CCOC(=O)N1C2CCC1CC(N1CCC3(CC1)C(=O)Nc1ccccc13)C2 (centres unmarked) [compound 199] | 65 to 85 | < 55 | ++ (activity was measured to be between 0.7 μM and 3.0 μM) | + (activity was measured to be greater than or equal to 4.0 μM) | –
10 | CCCCC(=O)N1CC2(CCN(C3CCN(C(=O)OCC)CC3)CC2)c2cc(F)ccc21 [compound 270] | 65 to 85 | > 70 | +++ (activity was measured to be less than or equal to 0.7 μM) | +++ (activity was measured to be less than or equal to 0.1 μM) | –
11 | CCCCOC(=O)N1C2CCC1CC(N1CCC3(CC1)COc1ccc(F)cc13)C2 (centres unmarked) [compound 286] | < 65 | < 55 | ++ (activity was measured to be between 0.7 μM and 3.0 μM) | + (activity was measured to be greater than or equal to 4.0 μM) | –
12 | CC(=O)N1CC2(CCN(C3CCN(C(=O)O[C@@H]4CCOC4)CC3)CC2)c2cc(F)ccc21 [compound 424] | < 65 | < 55 | – | – | M1 Activity (M1 muscarinic receptor; compound nos. 1-454): + (activity was measured to be greater than or equal to 3.0 μM); M4 Activity (M4 muscarinic receptor; compound nos. 1-454): + (activity was measured to be greater than or equal to 4.0 μM)
13 | CN(C)C(=O)N1CC2(CCN(C3CCN(c4cccnc4)CC3)CC2)c2cc(F)ccc21 [compound 453] | 65 to 85 | 55 to 70 | – | – | M1 Activity (M1 muscarinic receptor; compound nos. 1-454): +++ (activity was measured to be less than or equal to 0.7 μM); M4 Activity (M4 muscarinic receptor; compound nos. 1-454): +++ (activity was measured to be less than or equal to 0.1 μM)
14 | Cc1cc(C(=O)N2CC3(CCN(C4CC5CCC(C4)N5C(=O)O[C@H]4CCOC4)CC3)c3cc(F)ccc32)nn1C (some centres unmarked) [compound 411] | – | – | – | – | M1 Activity (M1 muscarinic receptor; compound nos. 1-454): +++ (activity was measured to be less than or equal to 0.7 μM); M1 Efficacy (M1 muscarinic receptor; [2]): + (efficacy was calculated to be 65% or less); M4 Activity (M4 muscarinic receptor; compound nos. 1-454): ++ (activity was measured to be between 0.1 μM and 4.0 μM); M4 Efficacy (M4 muscarinic receptor; [2]): + (efficacy was calculated to be 55% or less)
15 | O=C(O[C@H]1CCOC1)N1C2CCC1CC(N1CCC3(CC1)COc1ccc(F)cc13)C2 (some centres unmarked) [compound 212] | < 65 | < 55 | + (activity was measured to be greater than or equal to 3.0 μM) | + (activity was measured to be greater than or equal to 4.0 μM) | –
16 | CC(=O)N1CC2(CCN(C3CCCCCC3)CC2)c2cc(F)ccc21 [compound 210] | 65 to 85 | < 55 | ++ (activity was measured to be between 0.7 μM and 3.0 μM) | + (activity was measured to be greater than or equal to 4.0 μM) | –
17 | CCOC(=O)N1C2CCC1CC(N1CCC3(CC1)CN(C(=O)O[C@@H]1CCOC1)c1ccc(F)cc13)C2 (some centres unmarked) [compound 344] | 65 to 85 | < 55 | +++ (activity was measured to be less than or equal to 0.7 μM) | ++ (activity was measured to be between 0.1 μM and 4.0 μM) | –
